Test [1] in a line: HIV-1 AD8 envelope cell-cell fusion blockers – cherry-pick, dose response (AID 652062).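 Further: luciferase signal from cell-cell fusion driven by HIV-1 clade B AD8 Env; potency is for inhibitors of fusion seen as a drop in luminescence.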 Format: functional, cell-based.
The nature of test [2]: reduction of Shn3 3'UTR-driven luciferase in osteoblasts – cell-based, Clone20 osteoblasts, firefly luciferase, cherry-picked, dose response (AID 624132).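 Further: firefly luciferase luminescence from reporter carrying the Shn3 3'UTR in osteoblasts.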 Format: functional.
The nature of test [3]: off-target signal loss in HeLa-CEM21 co-culture – HeLa F-luc CTL cells, cherry-picked, counter-screen for HIV-1 Env fusion inhibitor project, dose response (AID 652040).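 Further: potency for signal decrease marking cytotoxic or nonspecific inhibition.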 Format: functional, cell-based. Background: The purpose of a counterscreen is to sort out artefacts and off-target activity.
Test [4] is described as follows: loss of viability in HepG2 cells – cell-based, CellTiter-Glo, cherry-picked, cytotoxicity control for Shn3 inhibitor project, dose response (AID 624134). It counts as functional. For orientation: In ATP-based viability assays light output follows the ATP content of the culture.
Test [5] is described as follows: blockers of HIV-1 envelope-mediated cell-cell fusion – cherry-pick, dose response (AID 652057). It counts as functional, cell-based.
The nature of test [6]: non-specific 3'UTR reporter inhibition in Clone20-Shn3RL – cell-based, Renilla luciferase, cherry-picked, counter-screen for Shn3 inhibitor project, dose response (AID 624133). Format: functional.
A short description of test [7]: viability loss in CEM21 cells – cell-based, CellTiter-Glo luminescence, cherry-picked, cytotoxicity control for viral fusion inhibitor project, dose response (AID 652042).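 Further: potency for signal decrease meaning cytotoxicity.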 It counts as functional.
A short description of test [8]: viability of uninfected HEp-2 cells – cell-based, HTS, cytotoxicity control for RSV inhibitor project, dose response (AID 2410). Format: functional. The settings on record: human respiratory syncytial virus.
Test [9] is described as follows: microbe, parasite or virus in culture. Format: functional. The settings on record: Mycobacterium tuberculosis.
The target of test [10] is T1, Rac GTPase-activating protein 1 (Homo sapiens, UniProt Q9H0H5).
T1 sequence (Q9H0H5 whole entry): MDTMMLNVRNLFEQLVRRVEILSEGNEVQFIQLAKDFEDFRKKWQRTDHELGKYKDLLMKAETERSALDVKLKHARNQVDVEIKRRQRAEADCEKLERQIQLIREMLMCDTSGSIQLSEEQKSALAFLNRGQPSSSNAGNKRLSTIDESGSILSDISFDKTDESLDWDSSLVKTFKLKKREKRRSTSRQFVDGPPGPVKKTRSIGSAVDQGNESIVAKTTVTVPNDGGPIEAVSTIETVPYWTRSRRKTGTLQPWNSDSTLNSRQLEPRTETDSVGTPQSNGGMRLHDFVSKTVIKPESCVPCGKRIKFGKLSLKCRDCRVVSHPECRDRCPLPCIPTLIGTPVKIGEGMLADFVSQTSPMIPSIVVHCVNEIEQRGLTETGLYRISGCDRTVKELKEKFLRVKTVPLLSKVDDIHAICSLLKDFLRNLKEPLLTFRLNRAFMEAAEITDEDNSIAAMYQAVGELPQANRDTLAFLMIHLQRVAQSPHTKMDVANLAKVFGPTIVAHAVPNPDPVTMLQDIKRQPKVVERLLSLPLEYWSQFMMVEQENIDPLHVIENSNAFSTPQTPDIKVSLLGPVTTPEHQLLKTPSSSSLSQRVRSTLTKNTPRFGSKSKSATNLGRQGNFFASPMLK
Put plainly: blockers of MgcRacGAP-driven Rac1 GTP hydrolysis – biochemical, ADP Hunter fluorescence, primary and confirmatory, confirmation (AID 624330). Format: functional.

The nature of test [11]: viability loss in HeLa cells – cytotoxicity control for MgcRacGAP inhibitor project, dose response (AID 624300). It counts as functional.
Test [12] addresses Mu-type opioid receptor (Homo sapiens, UniProt P35372). Format: functional, cell-based.
Test [13] deals with 5-hydroxytryptamine receptor 2A (Mus musculus, UniProt P35363). It counts as functional, cell-based.
Chain of 5-hydroxytryptamine receptor 2A (P35363 whole entry): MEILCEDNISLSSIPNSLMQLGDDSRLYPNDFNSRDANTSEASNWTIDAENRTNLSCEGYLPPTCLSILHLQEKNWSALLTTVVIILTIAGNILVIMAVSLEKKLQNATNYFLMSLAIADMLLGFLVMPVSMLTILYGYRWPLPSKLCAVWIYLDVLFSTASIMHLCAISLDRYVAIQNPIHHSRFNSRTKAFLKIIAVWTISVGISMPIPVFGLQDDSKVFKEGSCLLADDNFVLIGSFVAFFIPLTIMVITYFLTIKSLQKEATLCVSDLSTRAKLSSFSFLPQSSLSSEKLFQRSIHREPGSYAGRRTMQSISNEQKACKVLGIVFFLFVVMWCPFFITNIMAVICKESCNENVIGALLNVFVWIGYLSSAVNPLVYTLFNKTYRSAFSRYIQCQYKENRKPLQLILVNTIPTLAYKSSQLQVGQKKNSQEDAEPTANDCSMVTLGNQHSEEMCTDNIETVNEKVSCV
Test [14] has as its target T2, Sentrin-specific protease 8 (Homo sapiens, UniProt Q96LD8).
T2 sequence (Q96LD8 whole entry): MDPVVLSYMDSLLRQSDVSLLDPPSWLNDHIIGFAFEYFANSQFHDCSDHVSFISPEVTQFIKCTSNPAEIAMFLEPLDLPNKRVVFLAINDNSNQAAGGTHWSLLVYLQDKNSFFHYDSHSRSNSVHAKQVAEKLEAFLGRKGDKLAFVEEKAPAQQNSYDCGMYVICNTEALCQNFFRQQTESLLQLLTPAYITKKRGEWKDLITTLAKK
It counts as functional.

Test [15] has as its target Genome polyprotein (dengue virus type 2, UniProt P29990). Kind of test: flavivirus cap methylation enzyme inhibition – biochemical, confirmation dose response, primary screen (AID 588689). Format: functional.
The target of test [16] is T3, Protein RecA (Mycobacterium tuberculosis, UniProt P9WHJ3).
T3 sequence (P9WHJ3 whole entry): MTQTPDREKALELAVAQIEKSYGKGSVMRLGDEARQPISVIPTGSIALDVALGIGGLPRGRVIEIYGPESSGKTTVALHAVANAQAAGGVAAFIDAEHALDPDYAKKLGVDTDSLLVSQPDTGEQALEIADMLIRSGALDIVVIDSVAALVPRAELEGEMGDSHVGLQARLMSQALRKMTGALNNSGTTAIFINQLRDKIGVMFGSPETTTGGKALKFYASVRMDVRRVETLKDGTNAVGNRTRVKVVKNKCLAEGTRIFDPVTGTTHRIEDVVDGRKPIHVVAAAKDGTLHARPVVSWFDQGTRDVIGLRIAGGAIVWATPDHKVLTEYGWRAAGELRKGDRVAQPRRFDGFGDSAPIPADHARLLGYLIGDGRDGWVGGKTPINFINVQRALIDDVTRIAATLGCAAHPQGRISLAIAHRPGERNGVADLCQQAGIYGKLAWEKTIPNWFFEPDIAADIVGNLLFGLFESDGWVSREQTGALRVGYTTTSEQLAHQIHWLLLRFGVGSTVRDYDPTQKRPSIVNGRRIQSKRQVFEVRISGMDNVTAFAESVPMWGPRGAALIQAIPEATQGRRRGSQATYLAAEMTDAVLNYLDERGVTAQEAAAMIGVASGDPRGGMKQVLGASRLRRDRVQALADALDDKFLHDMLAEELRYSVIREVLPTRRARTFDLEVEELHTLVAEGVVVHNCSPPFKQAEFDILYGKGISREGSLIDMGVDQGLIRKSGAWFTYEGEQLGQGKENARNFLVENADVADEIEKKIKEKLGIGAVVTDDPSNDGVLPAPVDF
Kind of test: Fluorescence Cell-Free Homogeneous Dose Retest to Identify Inhibitors of RecA-Intein Splicing Activity. [Related pubchem assays (depositor defined):AID2097, AID2223, AID489010, AID492950]. Format: functional.

The target of test [17] is T2, Sentrin-specific protease 8. Format: functional. The source holds these as a separate data set.
The target of test [18] is T4, Replicative DNA helicase DnaB (Mycobacterium tuberculosis, UniProt P9WMR3).
T4 sequence (P9WMR3 whole entry): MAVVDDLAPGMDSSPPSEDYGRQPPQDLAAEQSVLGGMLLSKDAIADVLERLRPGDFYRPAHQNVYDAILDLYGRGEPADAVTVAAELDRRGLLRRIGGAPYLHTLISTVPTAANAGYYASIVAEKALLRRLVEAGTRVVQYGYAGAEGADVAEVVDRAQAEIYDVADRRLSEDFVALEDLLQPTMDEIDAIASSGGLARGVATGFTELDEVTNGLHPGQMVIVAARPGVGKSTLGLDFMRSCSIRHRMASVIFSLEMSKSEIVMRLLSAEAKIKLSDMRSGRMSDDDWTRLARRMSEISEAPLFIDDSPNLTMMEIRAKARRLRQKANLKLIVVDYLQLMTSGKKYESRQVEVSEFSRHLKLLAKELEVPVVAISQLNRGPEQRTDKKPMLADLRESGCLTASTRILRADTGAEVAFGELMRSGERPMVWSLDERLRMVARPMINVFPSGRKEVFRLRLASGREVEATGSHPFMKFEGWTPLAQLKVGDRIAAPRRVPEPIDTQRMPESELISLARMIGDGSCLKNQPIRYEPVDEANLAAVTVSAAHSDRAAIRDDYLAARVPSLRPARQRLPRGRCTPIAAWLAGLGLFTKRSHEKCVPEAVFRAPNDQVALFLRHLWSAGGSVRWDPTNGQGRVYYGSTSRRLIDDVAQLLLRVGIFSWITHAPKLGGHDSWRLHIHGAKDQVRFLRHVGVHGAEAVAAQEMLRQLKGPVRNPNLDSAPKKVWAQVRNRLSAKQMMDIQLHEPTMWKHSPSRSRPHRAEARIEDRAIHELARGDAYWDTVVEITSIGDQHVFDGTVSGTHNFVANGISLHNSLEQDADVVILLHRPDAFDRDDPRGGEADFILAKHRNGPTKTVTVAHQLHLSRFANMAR
Kind of test: DnaB intein splicing inhibitors, dose response, biochemical, cell-free fluorescence (AID 449749). It counts as functional.

The target in test [19] is T5, Apoptotic protease-activating factor 1 (Homo sapiens, UniProt O14727).
T5 sequence (O14727 whole entry): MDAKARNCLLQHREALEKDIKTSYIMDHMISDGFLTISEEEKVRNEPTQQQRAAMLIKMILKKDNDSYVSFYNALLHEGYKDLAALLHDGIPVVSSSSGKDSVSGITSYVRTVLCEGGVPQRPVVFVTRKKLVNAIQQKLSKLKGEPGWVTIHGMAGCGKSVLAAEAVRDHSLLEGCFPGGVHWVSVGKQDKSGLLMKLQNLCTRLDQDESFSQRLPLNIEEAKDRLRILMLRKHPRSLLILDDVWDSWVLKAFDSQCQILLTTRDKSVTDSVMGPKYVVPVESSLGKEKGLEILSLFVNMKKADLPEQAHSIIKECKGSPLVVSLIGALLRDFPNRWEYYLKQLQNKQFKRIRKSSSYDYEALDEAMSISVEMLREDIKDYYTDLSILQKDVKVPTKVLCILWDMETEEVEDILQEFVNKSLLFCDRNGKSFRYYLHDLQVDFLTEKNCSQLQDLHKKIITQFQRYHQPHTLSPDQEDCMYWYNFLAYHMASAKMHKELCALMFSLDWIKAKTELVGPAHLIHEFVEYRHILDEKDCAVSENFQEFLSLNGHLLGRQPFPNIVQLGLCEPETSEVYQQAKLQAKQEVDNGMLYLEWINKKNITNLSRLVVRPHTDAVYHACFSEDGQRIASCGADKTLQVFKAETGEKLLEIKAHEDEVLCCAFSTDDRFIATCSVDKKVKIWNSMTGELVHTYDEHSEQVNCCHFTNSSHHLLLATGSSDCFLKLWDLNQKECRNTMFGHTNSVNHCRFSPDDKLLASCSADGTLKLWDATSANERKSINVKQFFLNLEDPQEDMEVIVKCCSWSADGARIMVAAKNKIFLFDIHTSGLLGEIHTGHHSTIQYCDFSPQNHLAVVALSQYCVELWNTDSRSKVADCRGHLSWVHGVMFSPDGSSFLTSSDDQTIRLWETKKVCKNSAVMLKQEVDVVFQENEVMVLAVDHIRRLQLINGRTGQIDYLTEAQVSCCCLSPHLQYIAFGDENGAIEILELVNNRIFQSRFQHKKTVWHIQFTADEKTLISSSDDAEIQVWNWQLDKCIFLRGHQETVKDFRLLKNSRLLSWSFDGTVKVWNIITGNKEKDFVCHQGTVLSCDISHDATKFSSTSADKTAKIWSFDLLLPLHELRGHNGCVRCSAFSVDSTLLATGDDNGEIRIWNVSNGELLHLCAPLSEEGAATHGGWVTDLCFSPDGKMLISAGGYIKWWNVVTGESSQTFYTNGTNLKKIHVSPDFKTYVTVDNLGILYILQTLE
Format: functional.

The source made the active and inactive calls. A value given as a limit tells only on which side of the number the result lay.

Chain of Mu-type opioid receptor (P35372 whole entry): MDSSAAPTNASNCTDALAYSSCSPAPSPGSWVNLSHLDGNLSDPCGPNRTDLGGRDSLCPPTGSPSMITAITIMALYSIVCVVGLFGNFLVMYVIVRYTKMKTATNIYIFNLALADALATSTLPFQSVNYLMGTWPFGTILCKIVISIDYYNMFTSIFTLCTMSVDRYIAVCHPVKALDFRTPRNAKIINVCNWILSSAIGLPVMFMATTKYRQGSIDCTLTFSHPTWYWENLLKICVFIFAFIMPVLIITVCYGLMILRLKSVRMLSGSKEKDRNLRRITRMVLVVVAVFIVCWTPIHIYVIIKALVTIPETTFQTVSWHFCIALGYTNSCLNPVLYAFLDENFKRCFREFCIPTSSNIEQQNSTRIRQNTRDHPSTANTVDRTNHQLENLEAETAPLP
Chain of Genome polyprotein (P29990 2492-3391 limits assumed): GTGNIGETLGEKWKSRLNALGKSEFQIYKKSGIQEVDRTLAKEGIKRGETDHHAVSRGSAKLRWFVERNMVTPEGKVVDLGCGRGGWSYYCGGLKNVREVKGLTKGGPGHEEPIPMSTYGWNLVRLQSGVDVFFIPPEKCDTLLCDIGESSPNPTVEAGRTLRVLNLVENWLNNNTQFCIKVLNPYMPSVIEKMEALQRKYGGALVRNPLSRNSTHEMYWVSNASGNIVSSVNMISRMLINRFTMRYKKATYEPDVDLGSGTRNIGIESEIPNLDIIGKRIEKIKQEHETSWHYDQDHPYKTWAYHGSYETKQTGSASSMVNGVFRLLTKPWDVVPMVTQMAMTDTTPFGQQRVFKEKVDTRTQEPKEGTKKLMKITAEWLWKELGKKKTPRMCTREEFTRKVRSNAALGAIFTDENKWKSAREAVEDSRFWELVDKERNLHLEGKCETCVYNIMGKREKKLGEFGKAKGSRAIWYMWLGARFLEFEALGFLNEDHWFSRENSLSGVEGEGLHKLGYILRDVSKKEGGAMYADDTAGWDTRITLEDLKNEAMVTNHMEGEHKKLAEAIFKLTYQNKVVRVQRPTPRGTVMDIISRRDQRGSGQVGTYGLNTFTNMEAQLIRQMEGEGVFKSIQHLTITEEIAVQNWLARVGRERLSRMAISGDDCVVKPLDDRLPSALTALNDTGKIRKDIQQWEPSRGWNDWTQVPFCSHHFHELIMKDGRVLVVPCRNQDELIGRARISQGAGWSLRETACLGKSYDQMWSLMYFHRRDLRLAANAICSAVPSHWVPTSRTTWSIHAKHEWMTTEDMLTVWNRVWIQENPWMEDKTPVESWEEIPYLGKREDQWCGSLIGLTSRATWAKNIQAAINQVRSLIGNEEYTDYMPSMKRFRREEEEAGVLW

Take `FC(F)(F)c1nc(-c2cccs2)ncc1-c1nnnn1-c1ccc(Cl)cc1`: the AC50 (as a rule, the concentration giving half of the maximal activity seen) in test [1] is 2.87 µM (active); in test [2], 2.1 µM (active); in test [3] it was 29 µM (active); in test [4], 29.1 µM (active); in [5], 42.6 µM (active); in test [6], 1.9 µM (active). The AC50 in test [7] is 23 µM (active).
As for `CCN(CCNCC(O)COc1ccccc1C(C)C)c1cccc(C)c1` (stereo not drawn), the CC50 in test [8] was 20 µM (active); in [9], 14.2 µM (active); in test [11], 36.1 µM (active). The IC50 (commonly the midpoint of a concentration-inhibition curve) in [10] was 66.7 µM (active).
Consider `C=CCN1CCc2c(cc(O)c(O)c2Br)[C@@H](c2ccccc2)C1`, for which the EC50 (in general, the midpoint of the concentration-response curve) was 92.5 µM (inactive) in [12] and 0.0982 µM (active) in [13].
For `O=C1NC[C@H](Cc2ccccc2)N(C[C@H]2CCCN2C[C@H](Cc2ccc(O)cc2)N2C[C@H](Cc3ccc(O)cc3)N(CC3CCCCCC3)C(=O)C2=O)C1=O` the same measures were 92.5 µM (inactive) and 4.46 µM (active).
For `c1nc2nc[nH]c(N3CCN(Cc4ccc5c(c4)OCO5)CC3)c-2n1`, the EC50 in test [12] is 92.5 µM (inactive); in [13] it was 0.59 µM (active).
Regarding `Cc1n[nH]c(O)c1C(c1ccc(-c2cccc(Cl)c2)o1)c1c(C)n[nH]c1O`, the IC50 in [14] was 2.19 µM (active); in test [15] it was 56.5 µM (active); in [17] it was 3.19 µM (active); in test [19], 17.4 µM (active). The EC50 in test [16] was 66.2 µM (active). For the same molecule, in [18], the AC50 is > 380 µM (inactive).
